# Reference: ChEMBL document CHEMBL3352346, “Optimization of sphingosine-1-phosphate-1 receptor agonists: effects of acidic, basic, and zwitterionic chemotypes on pharmacokinetic and pharmacodynamic profiles” (J Med Chem, 2014)
# Calls of active or inactive are those of the source. The calls are words filed in the database; no cut-off is given here.
# What was measured:
# [1] = target: Sphingosine 1-phosphate receptor 1 (Homo sapiens, UniProt P21453); experiment: Agonist activity at human S1P1R expressed in RH7777 membranes assessed as [35S]GTPgammaS binding after 30 mins; type: functional, cell membranes
# Chain of Sphingosine 1-phosphate receptor 1 (P21453 whole entry): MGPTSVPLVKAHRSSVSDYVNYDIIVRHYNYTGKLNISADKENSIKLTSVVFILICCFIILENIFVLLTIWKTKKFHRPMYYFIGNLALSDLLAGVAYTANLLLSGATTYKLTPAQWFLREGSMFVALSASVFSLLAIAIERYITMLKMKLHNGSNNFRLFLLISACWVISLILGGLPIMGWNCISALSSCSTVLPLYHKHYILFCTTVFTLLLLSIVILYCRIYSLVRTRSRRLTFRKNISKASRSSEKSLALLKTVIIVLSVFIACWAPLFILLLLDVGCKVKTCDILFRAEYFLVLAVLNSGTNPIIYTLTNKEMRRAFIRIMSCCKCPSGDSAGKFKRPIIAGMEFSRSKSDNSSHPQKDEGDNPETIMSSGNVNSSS
# [2] = target: Sphingosine 1-phosphate receptor 3 (Homo sapiens, UniProt Q99500); experiment: Agonist activity at human S1P3R expressed in RBL membranes assessed as [35S]GTPgammaS binding after 30 mins; type: functional, cell membranes
# Chain of Sphingosine 1-phosphate receptor 3 (Q99500 whole entry): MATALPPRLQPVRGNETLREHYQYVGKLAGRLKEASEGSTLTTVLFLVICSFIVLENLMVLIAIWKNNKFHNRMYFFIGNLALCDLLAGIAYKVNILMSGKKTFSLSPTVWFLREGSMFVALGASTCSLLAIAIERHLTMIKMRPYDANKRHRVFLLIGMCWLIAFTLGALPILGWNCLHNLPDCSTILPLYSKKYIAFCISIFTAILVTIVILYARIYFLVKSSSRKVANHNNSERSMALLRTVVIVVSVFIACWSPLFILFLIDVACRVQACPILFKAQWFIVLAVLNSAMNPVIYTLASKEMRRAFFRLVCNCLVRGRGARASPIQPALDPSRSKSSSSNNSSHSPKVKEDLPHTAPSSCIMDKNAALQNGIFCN
# [3] = Solubility in fed-state simulated intestinal fluid at pH 5 after 24 hrs; type: ADME
# [4] = Solubility in fed-state simulated intestinal fluid at pH 6.5 after 24 hrs; type: ADME
# Cytochrome P450 1A2 = target: T1, Cytochrome P450 1A2 (Homo sapiens, UniProt P05177); experiment: Inhibition of CYP1A2 (unknown origin); type: ADME
# T1 sequence (P05177 whole entry): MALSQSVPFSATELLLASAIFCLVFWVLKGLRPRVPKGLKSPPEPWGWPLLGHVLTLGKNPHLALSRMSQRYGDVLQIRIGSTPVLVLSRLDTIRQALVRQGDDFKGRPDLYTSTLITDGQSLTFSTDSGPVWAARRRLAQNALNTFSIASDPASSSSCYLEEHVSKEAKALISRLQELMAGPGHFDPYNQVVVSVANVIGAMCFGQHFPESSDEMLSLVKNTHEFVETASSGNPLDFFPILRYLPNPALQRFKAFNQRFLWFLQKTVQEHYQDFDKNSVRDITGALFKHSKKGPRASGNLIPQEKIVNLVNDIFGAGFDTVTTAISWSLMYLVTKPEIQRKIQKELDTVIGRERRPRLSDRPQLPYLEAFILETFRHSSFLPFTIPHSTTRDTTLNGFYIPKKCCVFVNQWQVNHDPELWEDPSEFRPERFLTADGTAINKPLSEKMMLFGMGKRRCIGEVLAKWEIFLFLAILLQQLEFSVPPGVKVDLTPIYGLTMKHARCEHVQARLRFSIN
# Cytochrome P450 2C9 = Cytochrome P450 2C9 (Homo sapiens, UniProt P11712); experiment: Inhibition of CYP2C9 (unknown origin); type: ADME
# Chain of Cytochrome P450 2C9 (P11712 whole entry): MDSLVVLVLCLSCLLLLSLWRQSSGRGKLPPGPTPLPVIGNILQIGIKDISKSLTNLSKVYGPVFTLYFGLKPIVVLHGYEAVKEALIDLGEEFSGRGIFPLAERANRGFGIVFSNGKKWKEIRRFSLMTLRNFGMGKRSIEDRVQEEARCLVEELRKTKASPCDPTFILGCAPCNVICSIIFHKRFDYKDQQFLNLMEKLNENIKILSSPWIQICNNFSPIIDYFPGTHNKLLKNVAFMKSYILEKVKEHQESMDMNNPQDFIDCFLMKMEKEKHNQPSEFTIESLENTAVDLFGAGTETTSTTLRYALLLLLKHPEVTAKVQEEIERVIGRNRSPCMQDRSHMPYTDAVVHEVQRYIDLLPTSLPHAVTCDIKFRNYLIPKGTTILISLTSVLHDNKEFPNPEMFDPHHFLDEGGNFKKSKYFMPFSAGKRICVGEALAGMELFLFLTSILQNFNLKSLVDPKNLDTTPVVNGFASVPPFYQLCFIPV
# Cytochrome P450 2C19 = Cytochrome P450 2C19 (Homo sapiens, UniProt P33261); experiment: Inhibition of CYP2C19 (unknown origin); type: ADME
# Chain of Cytochrome P450 2C19 (P33261 whole entry): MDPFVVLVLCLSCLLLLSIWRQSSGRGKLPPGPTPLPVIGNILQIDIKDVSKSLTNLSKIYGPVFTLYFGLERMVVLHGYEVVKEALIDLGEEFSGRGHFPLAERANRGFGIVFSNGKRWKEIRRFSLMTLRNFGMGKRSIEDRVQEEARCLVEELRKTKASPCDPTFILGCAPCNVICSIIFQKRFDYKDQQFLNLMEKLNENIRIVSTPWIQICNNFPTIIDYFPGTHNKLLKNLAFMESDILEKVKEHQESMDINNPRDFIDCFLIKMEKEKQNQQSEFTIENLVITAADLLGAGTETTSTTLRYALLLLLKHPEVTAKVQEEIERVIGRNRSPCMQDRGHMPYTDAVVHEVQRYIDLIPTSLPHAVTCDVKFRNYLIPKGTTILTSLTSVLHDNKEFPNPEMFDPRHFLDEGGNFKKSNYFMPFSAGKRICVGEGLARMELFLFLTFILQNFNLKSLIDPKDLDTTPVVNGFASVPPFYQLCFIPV
# Cytochrome P450 2D6 = Cytochrome P450 2D6 (Homo sapiens, UniProt P10635); experiment: Inhibition of CYP2D6 (unknown origin); type: ADME
# Chain of Cytochrome P450 2D6 (P10635 whole entry): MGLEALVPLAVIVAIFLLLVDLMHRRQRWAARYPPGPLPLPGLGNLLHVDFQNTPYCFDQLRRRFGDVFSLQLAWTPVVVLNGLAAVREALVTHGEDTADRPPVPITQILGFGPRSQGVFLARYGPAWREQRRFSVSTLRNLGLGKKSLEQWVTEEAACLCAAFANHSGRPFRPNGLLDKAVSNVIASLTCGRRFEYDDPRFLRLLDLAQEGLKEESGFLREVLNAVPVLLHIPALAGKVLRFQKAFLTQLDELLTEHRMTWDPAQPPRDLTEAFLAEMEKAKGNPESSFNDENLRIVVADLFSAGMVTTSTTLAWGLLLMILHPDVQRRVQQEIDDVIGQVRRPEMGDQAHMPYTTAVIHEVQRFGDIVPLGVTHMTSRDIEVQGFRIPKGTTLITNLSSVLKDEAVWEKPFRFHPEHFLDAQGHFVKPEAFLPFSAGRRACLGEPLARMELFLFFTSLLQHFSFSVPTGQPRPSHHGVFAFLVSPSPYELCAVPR
# [5] = Inhibition of CYP3A4VG (unknown origin); type: ADME, Homo sapiens
# [6] = Inhibition of CYP3A4VR (unknown origin); type: ADME, Homo sapiens
# [7] = Permeability in MDCK cells; type: ADME, cell-based, Canis lupus familiaris; conditions: dog, read-out: permeability
# Hepatocyte = experiment: Intrinsic clearance in rat hepatocyte; type: ADME, cell-based; conditions: hepatocytes
# [8] = Intrinsic clearance in dog hepatocyte; type: ADME, cell-based, Canis lupus familiaris; conditions: hepatocytes
# Rattus norvegicus [9] = experiment: Reduction in lymphocyte level in po dosed male Lewis rat; type: functional, organism-based
# [10] = Clearance in CD rat at 1 mg/kg, iv or 3 mg/kg, po using DMSO/10%(w/v) Kleptose, 0.9% saline(aq) (2%/98%); type: ADME, organism-based; conditions: in vivo
# [11] = Volume of distribution at steady state in CD rat at 1 mg/kg, iv or 3 mg/kg, po using DMSO/10%(w/v) Kleptose, 0.9% saline(aq) (2%/98%); type: ADME, organism-based; conditions: in vivo, read-out: Vdss
# [12] = Half life in CD rat at 1 mg/kg, iv or 3 mg/kg, po using DMSO/10%(w/v) Kleptose, 0.9% saline(aq) (2%/98%); type: ADME, organism-based; conditions: in vivo
# [13] = (§1) Oral bioavailability in CD rat at 3 mg/kg using Methylcellulose(aq), 1% (w/v) suspension; type: ADME, organism-based; conditions: CD, in vivo
# [14] = Clearance in Beagle dog at 1 mg/kg, iv or 2 mg/kg, po using DMSO/10%(w/v) Kleptose, 0.9% saline(aq) (2%/98%); type: ADME, organism-based, Canis lupus familiaris; conditions: in vivo
# [15] = (§2) Volume of distribution at steady state in Beagle dog at 1 mg/kg, iv or 2 mg/kg, po using DMSO/10%(w/v) Kleptose, 0.9% saline(aq) (2%/98%); type: ADME, organism-based, Canis lupus familiaris; conditions: beagle, in vivo, read-out: Vdss
# [16] = (§3) Half life in Beagle dog at 1 mg/kg, iv or 2 mg/kg, po using DMSO/10%(w/v) Kleptose, 0.9% saline(aq) (2%/98%); type: ADME, organism-based, Canis lupus familiaris; conditions: beagle, in vivo
# [17] = (§4) Oral bioavailability in Beagle dog at 2 mg/kg using Methylcellulose(aq), 1% (w/v) suspension; type: ADME, organism-based, Canis lupus familiaris; conditions: beagle, in vivo
# [18] = Solubility in simulated gastric fluid; type: ADME
# [19] = Dissociation constant, pKa of the compound; type: physicochemical
# Rattus norvegicus [20] = experiment: Reduction of lymphocyte count in rat at 0.3 to 3 mg/kg, po measured relative to control; type: functional, organism-based
# [21] = Fraction unbound in rat blood; type: ADME, tissue-based
# [22] = Fraction unbound in dog blood; type: ADME, tissue-based, Canis lupus familiaris
# [23] = Fraction unbound in human blood; type: ADME, tissue-based
# Canis familiaris [24] = experiment: as §3; type: ADME, organism-based, Canis lupus familiaris; conditions: in vivo
# Rattus norvegicus [25] = experiment: Reduction of lymphocyte count in rat at 1 mg/kg, po measured at 2 to 12 hrs relative to control; type: functional
# Rattus norvegicus [26] = experiment: as §1; type: ADME, organism-based; conditions: in vivo
# Canis familiaris [27] = experiment: as §2; type: ADME, organism-based, Canis lupus familiaris; conditions: in vivo
# Canis familiaris [28] = experiment: as §4; type: ADME, organism-based, Canis lupus familiaris; conditions: in vivo
# [29] = Clearance in CD rat at 1 mg/kg, iv or 3 mg/kg, po using DMSO/10%(w/v) Kleptose, 0.9% saline(aq) (5%/95%); type: ADME, organism-based; conditions: in vivo
# [30] = Volume of distribution at steady state in CD rat at 1 mg/kg, iv or 3 mg/kg, po using DMSO/10%(w/v) Kleptose, 0.9% saline(aq) (5%/95%); type: ADME, organism-based; conditions: in vivo, read-out: Vdss
# [31] = Half life in CD rat at 1 mg/kg, iv or 3 mg/kg, po using DMSO/10%(w/v) Kleptose, 0.9% saline(aq) (5%/95%); type: ADME, organism-based; conditions: in vivo
# [32] = Clearance in cynomolgus monkey at 1 mg/kg, iv or 3 mg/kg, po using DMSO/10%(w/v) Kleptose, 0.9% saline(aq) (2%/98%); type: ADME, organism-based, Macaca fascicularis; conditions: in vivo
# [33] = Volume of distribution at steady state in cynomolgus monkey at 1 mg/kg, iv or 3 mg/kg, po using DMSO/10%(w/v) Kleptose, 0.9% saline(aq) (2%/98%); type: ADME, organism-based, Macaca fascicularis; conditions: in vivo, read-out: Vdss
# [34] = Half life in cynomolgus monkey at 1 mg/kg, iv or 3 mg/kg, po using DMSO/10%(w/v) Kleptose, 0.9% saline(aq) (2%/98%); type: ADME, organism-based, Macaca fascicularis; conditions: in vivo
# [35] = Oral bioavailability in cynomolgus monkey at 3 mg/kg using Methylcellulose(aq), 1% (w/v) suspension; type: ADME, organism-based, Macaca fascicularis; conditions: in vivo
EC50 [1],EC50 [2],solubility at 24 h [3],solubility at 24 h [4],IC50 (Cytochrome P450 1A2),IC50 (Cytochrome P450 2C9),IC50 (Cytochrome P450 2C19),IC50 (Cytochrome P450 2D6),IC50 [5],IC50 [6],CLH (Hepatocyte),CLH [8],"IC50 (Rattus norvegicus [9]; Rattus norvegicus, Lewis)",clearance [10],Vd [11],half-life [12],bioavailability [13],Vd [15],bioavailability [17],pKa [19],SMILES,also measured
0.00794 µM,7.94 µM,100 µg/mL,30 µg/mL,> 50 µM,> 50 µM,> 50 µM,> 50 µM,> 50 µM,> 50 µM,< 0.85 mL/min/g,< 1.7 mL/min/g,0.015 µM,7 mL/min/kg,1.5 L/kg,2.6 h,62%,1.6 L/kg,69%,9.15,CC(C)Oc1ccc(-c2nc(-c3ccc4c(c3)CCN(CCCC(=O)O)CC4)no2)cc1C#N,Papp [7]: 15 ×10⁻⁶ cm/s; clearance [14]: 3 mL/min/kg; half-life [16]: 8 h; solubility [18]: 20 µg/mL; inhibition (Rattus norvegicus [20]): Active
0.0501 µM,10 µM,–,–,> 50 µM,> 50 µM,> 50 µM,> 50 µM,> 50 µM,> 50 µM,< 0.9 mL/min/g,1.7 mL/min/g,0.099 µM,0.71 mL/min/kg,0.4 L/kg,6.6 h,78%,0.9 L/kg,67%,8.09,CC(C)Oc1ncc(-c2nc(-c3cccc4c3OCCNC4CCCC(=O)O)no2)cc1Cl (stereo in doubt; 31b),fraction unbound [21]: 0.004; fraction unbound [22]: 0.015; fraction unbound [23]: 0.016; t1/2 (Canis familiaris [24]): 1.8 h; inhibition in vivo at 1 mg/kg (Rattus norvegicus [25]): > 80%
0.0398 µM,20 µM,–,–,> 50 µM,> 50 µM,> 50 µM,> 50 µM,–,–,–,4 mL/min/g,–,–,–,–,–,–,–,–,"CC(C)Oc1ncc(-c2nc(-c3cccc4c3OCCNC4CCCC(=O)O)no2)cc1Cl (single isomer, unassigned; enantiomer 1)",Fu [22]: 0.01; Fu [23]: 0.014; IC50 (Rattus norvegicus [9]): 0.091 µM; F (Rattus norvegicus [26]): 87%; Vdss (Canis familiaris [27]): 1.5 L/kg; t1/2 (Canis familiaris [24]): 0.84 h; F (Canis familiaris [28]): 50%; clearance [29]: 1.03 mL/min/kg; Vd [30]: 0.6 L/kg; half-life [31]: 6.4 h
0.0398 µM,> 31.6 µM,30 µg/mL,320 µg/mL,> 50 µM,27 µM,> 50 µM,> 50 µM,40 µM,39 µM,1 mL/min/g,8.3 mL/min/g,0.127 µM,7 mL/min/kg,1.2 L/kg,3 h,83%,1 L/kg,57%,7.39,CC(C)Oc1ccc(-c2nc(-c3cccc4c3OCCN(CCCC(=O)O)C4)no2)cc1Cl,Papp [7]: 15.5 ×10⁻⁶ cm/s; fraction unbound [21]: 0.012; fraction unbound [22]: 0.018; fraction unbound [23]: 0.02; clearance [14]: 26 mL/min/kg; half-life [16]: 0.4 h; clearance [32]: 30 mL/min/kg; Vd [33]: 4 L/kg; half-life [34]: 3.2 h; bioavailability [35]: 39%; solubility [18]: > 1320 µg/mL
